Measured values reported in ChEMBL document CHEMBL3396992, “Synthesis and biological evaluation of pyrazolylthiazole carboxylic acids as potent anti-inflammatory-antimicrobial agents” (2015).
Values after ≈ are worked out from the molar mass of the structure shown. Active and inactive are the calls of the source. No cut-off for these calls is given here.

Assays:
Rattus norvegicus [1] = test: Antiinflammatory activity against carrageenan-induced paw edema male Wistar albino rat assessed as edema volume at 50 mg/kg, ip administered 30 mins prior to carrageenan-challenge measured after 3 hrs (reference value: 1.73 +/- 0.09 mL); format: functional; conditions: route intraperitoneal
Pseudomonas aeruginosa = conditions: MTCC 741, 4 mg/ml
Description: Antimicrobial activity against Pseudomonas aeruginosa MTCC 741 assessed as growth inhibition at 4 mg/ml after 24 hrs by agar well diffusion method

Escherichia coli = test: Antimicrobial activity against Escherichia coli MTCC 1652 assessed as growth inhibition at 4 mg/ml after 24 hrs by agar well diffusion method; format: functional, organism-based
Staphylococcus aureus [2] = test: Antimicrobial activity against Staphylococcus aureus MTCC 96 assessed as growth inhibition after 24 hrs by agar well diffusion method; format: functional
Rattus norvegicus [3] = test: Antiinflammatory activity against carrageenan-induced paw edema male Wistar albino rat assessed as edema volume at 50 mg/kg, po administered 30 mins prior to carrageenan-challenge measured after 1 hr (reference value: 1.11 +/- 0.12 mL); format: functional
Staphylococcus aureus [4] = test: Antimicrobial activity against Staphylococcus aureus MTCC 96 assessed as growth inhibition at 4 mg/ml after 24 hrs by agar well diffusion method; format: functional; conditions: for zone of inhibition at 4000 µg/mL: MTCC 96, 24 h, read-out: DIZ
Rattus norvegicus [5] = test: Antiinflammatory activity against carrageenan-induced paw edema male Wistar albino rat at 50 mg/kg, ip administered 30 mins prior to carrageenan-challenge measured after 2 hrs relative to control; format: functional; conditions: route intraperitoneal
Bacillus subtilis [6] = test: Antimicrobial activity against Bacillus subtilis MTCC 121 assessed as growth inhibition at 4 mg/ml after 24 hrs by agar well diffusion method; format: functional; conditions: for zone of inhibition at 4000 µg/mL: MTCC 121, 24 h, read-out: DIZ
Rattus norvegicus [7] = test: Antiinflammatory activity against carrageenan-induced paw edema male Wistar albino rat assessed as edema volume at 50 mg/kg, ip administered 30 mins prior to carrageenan-challenge measured after 2 hrs (reference value: 1.21 +/- 0.16 mL); format: functional; conditions: route intraperitoneal
Bacillus subtilis [8] = test: Antimicrobial activity against Bacillus subtilis MTCC 121 assessed as growth inhibition after 24 hrs by agar well diffusion method; format: functional
Candida albicans [9] = test: Antimicrobial activity against Candida albicans MTCC 3017 assessed as growth inhibition at 4 mg/ml after 24 hrs by agar well diffusion method; format: functional; conditions: MTCC 3017, 24 h, read-out: DIZ
Saccharomyces cerevisiae [10] = test: Antimicrobial activity against Saccharomyces cerevisiae MTCC 170 assessed as growth inhibition at 4 mg/ml after 24 hrs by agar well diffusion method; format: functional; conditions: for zone of inhibition at 4000 µg/mL: MTCC 170, 24 h, read-out: DIZ
Rattus norvegicus [11] = test: Antiinflammatory activity against carrageenan-induced paw edema male Wistar albino rat at 50 mg/kg, ip administered 30 mins prior to carrageenan-challenge measured after 3 hrs relative to control; format: functional; conditions: route intraperitoneal
Rattus norvegicus [12] = test: Antiinflammatory activity against carrageenan-induced paw edema male Wistar albino rat assessed as edema volume at 50 mg/kg, ip administered 30 mins prior to carrageenan-challenge measured after 4 hrs (reference value: 1.88 +/- 0.20 mL); format: functional; conditions: route intraperitoneal
Saccharomyces cerevisiae [13] = test: Antimicrobial activity against Saccharomyces cerevisiae MTCC 170 assessed as growth inhibition after 24 hrs by agar well diffusion method; format: functional
Candida albicans [14] = test: Antimicrobial activity against Candida albicans MTCC 3017 assessed as growth inhibition after 24 hrs by agar well diffusion method; format: functional; conditions: MTCC 3017, 24 h
Rattus norvegicus [15] = test: Antiinflammatory activity against carrageenan-induced paw edema male Wistar albino rat at 50 mg/kg, ip administered 30 mins prior to carrageenan-challenge measured after 4 hrs relative to control; format: functional; conditions: route intraperitoneal
Rattus norvegicus [16] = test: Antiinflammatory activity against carrageenan-induced paw edema male Wistar albino rat at 50 mg/kg, ip administered 30 mins prior to carrageenan-challenge measured after 1 hr relative to control; format: functional; conditions: route intraperitoneal

Row | Compound | Activity (Rattus norvegicus [1]) [mL] | DIZ (Pseudomonas aeruginosa) | diameter of the inhibition zone (DIZ) (Escherichia coli) | MIC (Staphylococcus aureus [2]; MTCC 96, 24 h) [µg/mL] | Activity (Rattus norvegicus [3]) [mL] | zone of inhibition at 4000 µg/mL (Staphylococcus aureus [4]) [mm] | Activity (Rattus norvegicus [5]) [%] | zone of inhibition at 4000 µg/mL (Bacillus subtilis [6]) [mm] | Activity (Rattus norvegicus [7]) [mL] | MIC (Bacillus subtilis [8]; MTCC 121, 24 h) [µg/mL] | zone of inhibition at 4000 µg/mL (Candida albicans [9]) [mm] | zone of inhibition at 4000 µg/mL (Saccharomyces cerevisiae [10]) [mm] | Activity (Rattus norvegicus [11]) [%] | Activity (Rattus norvegicus [12]) [mL] | MIC (Saccharomyces cerevisiae [13]; MTCC 170, 24 h) [µg/mL] | MIC (Candida albicans [14]) [µg/mL] | Activity (Rattus norvegicus [15]) [%] | Activity (Rattus norvegicus [16]) [%] | diameter of the inhibition zone (DIZ) (Saccharomyces cerevisiae [10]) | MIC (Saccharomyces cerevisiae [13]) | other results
1 | O=C(O)c1sc(-c2cn(-c3ccccc3)nc2-c2ccc(Cl)cc2)nc1-c1ccccc1 | 0.69 | inactive | inactive | 25 (≈ 54.6 µM) | 0.32 | 22.6 | 61.98 | 22.6 | 0.46 | 12.5 (≈ 27.3 µM) | 24.6 | 26.6 | 60.11 | 0.54 | 6.25 (≈ 13.6 µM) | 6.25 (≈ 13.6 µM) | 71.27 | 71.17 | – | – | –
2 | CCOC(=O)c1sc(-c2cn(-c3ccccc3)nc2-c2ccccc2)nc1-c1ccccc1 | 0.28 | inactive | inactive | 50 (≈ 111 µM) | 0.1 | 14.3 | 75.2 | 11 | 0.3 | 50 (≈ 111 µM) | 15.3 | – | 83.81 | 0.24 | – | 50 (≈ 111 µM) | 87.23 | 90.99 | inactive | inactive | –
3 | COc1ccc(-c2nn(-c3ccccc3)cc2-c2nc(-c3ccc(Cl)cc3)c(C(=O)O)s2)cc1 | 0.28 | inactive | inactive | 6.25 (≈ 12.8 µM) | 0.18 | 24.6 | 78.51 | 29.6 | 0.26 | 6.25 (≈ 12.8 µM) | 27.6 | 27.6 | 83.81 | 0.2 | 6.25 (≈ 12.8 µM) | 6.25 (≈ 12.8 µM) | 89.36 | 83.78 | – | – | –
4 | O=C(O)c1sc(-c2cn(-c3ccccc3)nc2-c2ccc(Cl)cc2)nc1-c1ccc(F)cc1 | 0.49 | inactive | inactive | – | 0.29 | – | 72.72 | – | 0.33 | – | 12 | 24.6 | 71.67 | 0.38 | 12.5 (≈ 26.3 µM) | 50 (≈ 105 µM) | 79.78 | 73.87 | – | – | MIC (Staphylococcus aureus [2]): inactive; diameter of the inhibition zone (DIZ) (Staphylococcus aureus [4]): inactive; diameter of the inhibition zone (DIZ) (Bacillus subtilis [6]): inactive; MIC (Bacillus subtilis [8]): inactive
5 | O=C(O)c1sc(-c2cn(-c3ccccc3)nc2-c2ccc(F)cc2)nc1-c1ccccc1 | 0.37 | inactive | inactive | 25 (≈ 56.6 µM) | 0.14 | 20.3 | 81.81 | 18.3 | 0.22 | 25 (≈ 56.6 µM) | 21.3 | > 20 | 78.61 | 0.18 | 50 (≈ 113 µM) | 25 (≈ 56.6 µM) | 90.42 | 87.38 | – | – | –
6 | CCOC(=O)c1sc(-c2cn(-c3ccccc3)nc2-c2ccc(Cl)cc2)nc1-c1ccc(Cl)cc1 | 0.12 | inactive | inactive | – | 0.18 | – | 77.68 | – | 0.27 | – | 13 | 15 | 93.06 | 0.18 | 50 (≈ 96.1 µM) | 50 (≈ 96.1 µM) | 90.42 | 83.78 | – | – | MIC (Staphylococcus aureus [2]): inactive; diameter of the inhibition zone (DIZ) (Staphylococcus aureus [4]): inactive; diameter of the inhibition zone (DIZ) (Bacillus subtilis [6]): inactive; MIC (Bacillus subtilis [8]): inactive
7 | CCOC(=O)c1sc(-c2cn(-c3ccccc3)nc2-c2ccc(F)cc2)nc1-c1ccc(OC)cc1 | 0.39 | inactive | inactive | – | 0.22 | – | 79.33 | 13.3 | 0.27 | 50 (≈ 100 µM) | 15.6 | – | 77.45 | 0.32 | – | 50 (≈ 100 µM) | 82.97 | 80.18 | inactive | inactive | MIC (Staphylococcus aureus [2]): inactive; diameter of the inhibition zone (DIZ) (Staphylococcus aureus [4]): inactive
8 | CCOC(=O)c1sc(-c2cn(-c3ccccc3)nc2-c2ccc(Cl)cc2)nc1-c1ccc(F)cc1 | 0.5 | inactive | inactive | 50 (≈ 99.2 µM) | 0.18 | 12 | 61.15 | 13.3 | 0.47 | 50 (≈ 99.2 µM) | 17.6 | – | 71.09 | 0.19 | – | 50 (≈ 99.2 µM) | 89.89 | 83.78 | inactive | inactive | –
9 | CCOC(=O)c1sc(-c2cn(-c3ccccc3)nc2-c2ccccc2)nc1-c1ccc(F)cc1 | 0.31 | inactive | inactive | – | 0.29 | – | 81.81 | – | 0.22 | – | 18.6 | – | 82.08 | 0.42 | – | 25 (≈ 53.2 µM) | 88.29 | 73.87 | inactive | inactive | MIC (Staphylococcus aureus [2]): inactive; diameter of the inhibition zone (DIZ) (Staphylococcus aureus [4]): inactive; diameter of the inhibition zone (DIZ) (Bacillus subtilis [6]): inactive; MIC (Bacillus subtilis [8]): inactive
10 | O=C(O)c1sc(-c2cn(-c3ccccc3)nc2-c2ccccc2)nc1-c1ccc(F)cc1 | 0.18 | inactive | inactive | 12.5 (≈ 28.3 µM) | 0.19 | 24.6 | 86.77 | 18.3 | 0.16 | 25 (≈ 56.6 µM) | 25.6 | 20.6 | 89.59 | 0.17 | 25 (≈ 56.6 µM) | 12.5 (≈ 28.3 µM) | 90.95 | 82.88 | – | – | –
11 | C[C@@H]1[C@H](O)[C@@H](C)/C=C/C=C/C=C/C=C/C=C/C=C/C=C/[C@H](O[C@@H]2O[C@H](C)[C@@H](O)[C@H](N)[C@@H]2O)C[C@@H]2O[C@](O)(C[C@@H](O)C[C@@H](O)[C@H](O)CC[C@@H](O)C[C@@H](O)CC(=O)O[C@H]1C)C[C@H](O)[C@H]2C(=O)O [AMPHOTERICIN B] | – | – | – | – | – | – | – | – | – | – | 16.6 | 19.3 | – | – | 6.25 (≈ 6.76 µM) | 6.25 (≈ 6.76 µM) | – | – | – | – | –
12 | CCOC(=O)c1sc(-c2cn(-c3ccccc3)nc2-c2ccc(OC)cc2)nc1-c1ccc(OC)cc1 | 0.27 | – | – | 50 (≈ 97.7 µM) | 0.15 | 15 | 84.29 | – | 0.19 | – | 16.6 | – | 84.39 | 0.17 | – | 50 (≈ 97.7 µM) | 90.95 | 86.48 | inactive | inactive | diameter of the inhibition zone (DIZ) (Bacillus subtilis [6]): inactive; MIC (Bacillus subtilis [8]): inactive
